Measurements: patent US10556907B2 (AbbVie Inc., priority 2015, dated 2020)

How the values were obtained:
Experiment in all cases: Method 1: intracellular Ca2+ release (FLIPR, Calcium 5) in recombinant CHO-K1 cells
Assay type in all cases: cell-based
human S1PR1 receptor = biological target: T1, human S1PR1 receptor (Homo sapiens, UniProt P21453); conditions: (1): determined with method 1; read-out: S1P1 EC50
T1 construct: host or cells: CHO-K1
Description: (§1) Agonistic activity was measured using two different methods, described below.
(§2) Method 1. Intracellular Ca^2+ Release
(§3) Agonist potency and intrinsic activity was assessed by measurement of intracellular Ca^2+ release. Recombinant CHO-K1 cells (Euroscreen, Brussels, Belgium) expressing human S1PR5, S1PR1, S1PR3 or S1PR4 receptors, aequorin, and GTP binding protein Gq/i5 were cultured using a medium containing nutrient mixture F-12 Ham (Sigma-Aldrich) with 10% FBS, and 100 μg/mL gentamicin and equilibrated at 5% CO2.
(§4) 15.000 cells in 20 μL medium were seeded into Biocoat poly-D-Lysine coated 384 well plates (Becton Dickinson #35-6663) and grown to 95% confluency after 24 h.
(§5) Culture medium was replaced by an assay buffer consisting of HBBS with Ca^2+ and Mg^2+ (Invitrogen #14025-050), 20 mmol/L Hepes (Sigma-Aldrich #H-3375), 2.5 mmol/L probenecid (Sigma-Aldrich #P-8761, and 0.1% BSA (Sigma-Aldrich #A-7030) pH 7.4. The Calcium 5 no-wash FLIPR assay kit (Molecular Devices #5000625) was performed as described in the kit instructions. Cells were incubated with Calcium 5 dye for 1 h at 37° C., 5% CO2 in the dark. After 45 min adaptation to RT assessment of agonist stimulation of intracellular Ca^2+ release was performed by addition of test compounds at concentrations obtained by serial dilution. Phospho-fingolimod was used as positive control. Antagonists were pre-incubated for 10 min with cells before addition of the agonist (phospho-fingolimod at EC80). Measurements were performed using a fluorometric imaging plate reader FLIPR® tetra (Molecular Devices). Agonist at the human S1P receptors were characterized by deducing EC50 (potency) values from a nonlinear fit to the measured fluorescence raw data after normalization to the reference agonist (phospho-fingolimod) curve.

human S1PR3 receptor = biological target: T2, human S1PR3 receptor (Homo sapiens, UniProt Q99500); conditions: (1): determined with method 1; read-out: S1P3 EC50
T2 construct: host or cells: CHO-K1
T2 sequence (Q99500 whole entry): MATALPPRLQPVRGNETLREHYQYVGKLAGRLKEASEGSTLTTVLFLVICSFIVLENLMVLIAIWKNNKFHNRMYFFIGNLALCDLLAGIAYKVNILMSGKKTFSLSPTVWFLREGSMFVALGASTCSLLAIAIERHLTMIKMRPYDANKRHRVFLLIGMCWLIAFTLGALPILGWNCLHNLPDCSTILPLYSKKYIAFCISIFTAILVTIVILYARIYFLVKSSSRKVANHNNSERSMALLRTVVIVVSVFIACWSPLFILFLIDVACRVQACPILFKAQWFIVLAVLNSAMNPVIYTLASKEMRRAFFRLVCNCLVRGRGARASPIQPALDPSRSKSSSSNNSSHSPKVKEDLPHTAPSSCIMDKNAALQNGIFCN
Description: as §1, §2, §3, §4, §5

human S1PR5 receptor = biological target: T3, human S1PR5 receptor (Homo sapiens, UniProt Q9H228); conditions: agonist potency, determined with method 1 (symbols A-D); read-out: S1P5 EC50 range
T3 construct: host or cells: CHO-K1
T3 sequence (Q9H228 whole entry): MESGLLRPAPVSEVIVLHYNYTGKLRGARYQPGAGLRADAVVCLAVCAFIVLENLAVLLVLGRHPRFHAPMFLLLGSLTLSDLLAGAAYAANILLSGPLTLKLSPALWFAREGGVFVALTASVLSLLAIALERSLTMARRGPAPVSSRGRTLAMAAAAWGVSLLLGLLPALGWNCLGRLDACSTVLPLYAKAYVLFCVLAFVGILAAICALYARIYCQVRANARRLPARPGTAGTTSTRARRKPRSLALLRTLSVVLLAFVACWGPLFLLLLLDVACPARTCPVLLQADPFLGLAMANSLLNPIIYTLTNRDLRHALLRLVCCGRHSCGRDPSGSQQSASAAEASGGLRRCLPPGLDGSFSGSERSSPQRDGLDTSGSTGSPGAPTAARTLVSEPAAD
Description: as §1, §2, §3, §4, §5

T1 sequence (P21453 whole entry): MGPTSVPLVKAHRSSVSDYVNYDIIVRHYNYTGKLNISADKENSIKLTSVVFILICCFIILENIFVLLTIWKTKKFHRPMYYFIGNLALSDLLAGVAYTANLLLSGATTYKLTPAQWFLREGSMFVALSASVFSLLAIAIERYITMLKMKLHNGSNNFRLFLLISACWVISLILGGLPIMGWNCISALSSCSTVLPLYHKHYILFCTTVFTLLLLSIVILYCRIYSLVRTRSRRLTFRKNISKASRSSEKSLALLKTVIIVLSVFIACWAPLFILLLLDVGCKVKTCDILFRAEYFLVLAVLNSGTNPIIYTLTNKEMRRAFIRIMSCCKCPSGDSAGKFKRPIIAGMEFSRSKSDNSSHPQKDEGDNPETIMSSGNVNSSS

O=C(O)CCN1CCc2nc(-c3ccc(OCc4ccc(C(F)F)cc4)cc3)ncc2C1 [Compound 77, 3-(2-(4-((4-difluoromethylbenzyl)oxy)phenyl)-7,8-dihydropyrido[4,3-d]pyrimidin-6(5H)-yl)propanoic acid]
EC50 (human S1PR1 receptor): > 1000 nM
EC50 (human S1PR3 receptor): > 1000 nM
EC50 (human S1PR5 receptor): < 10 nM

O=C(O)CCN1CCc2nc(-c3ccc(OCc4ccccc4C(F)F)cc3)ncc2C1 [Compound 78, 3-(2-(4-((2-difluoromethylbenzyl)oxy)phenyl)-7,8-dihydropyrido[4,3-d]pyrimidin-6(5H)-yl)propanoic acid]
EC50 (human S1PR1 receptor): > 1000 nM
EC50 (human S1PR3 receptor): > 1000 nM
EC50 (human S1PR5 receptor): < 10 nM

CC(C)Oc1ccc(-c2ncc3c(n2)CCN(CCC(=O)O)C3)cc1Cl [Compound 79, 3-(2-(3-chloro-4-isopropoxyphenyl)-7,8-dihydropyrido[4,3-d]pyrimidin-6(5H)-yl)propanoic acid]
EC50 (human S1PR1 receptor): > 1000 nM
EC50 (human S1PR3 receptor): > 1000 nM
EC50 (human S1PR5 receptor): 1000 to 10000 nM

CSc1ccc(COc2ccc(-c3ncc4c(n3)CCN(CCC(=O)O)C4)cc2)cc1 [Compound 80, 3-(2-(4-((4-(methylthio)benzyl)oxy)phenyl)-7,8-dihydropyrido[4,3-d]pyrimidin-6(5H)-yl)propanoic acid]
EC50 (human S1PR1 receptor): > 1000 nM
EC50 (human S1PR3 receptor): > 1000 nM
EC50 (human S1PR5 receptor): < 10 nM

O=C(O)CCN1CCc2nc(-c3ccc(OCc4ccc(C(F)(F)F)cc4)cc3)ncc2C1 [Compound 81, 3-(2-(4-((4-(trifluoromethyl)benzyl)oxy)phenyl)-7,8-dihydropyrido[4,3-d]pyrimidin-6(5H)-yl)propanoic acid]
EC50 (human S1PR1 receptor): > 1000 nM
EC50 (human S1PR3 receptor): > 1000 nM
EC50 (human S1PR5 receptor): < 10 nM

O=C(O)CCN1CCc2nc(-c3ccc(OCc4ccccc4OC(F)(F)F)cc3)ncc2C1 [Compound 84, 3-(2-(4-((2-(trifluoromethoxy)benzyl)oxy)phenyl)-7,8-dihydropyrido[4,3-d]pyrimidin-6(5H)-yl)propanoic acid]
EC50 (human S1PR1 receptor): > 1000 nM
EC50 (human S1PR3 receptor): > 1000 nM
EC50 (human S1PR5 receptor): 10 to 100 nM

O=C(O)CCN1CCc2nc(-c3ccc(OCc4cccc(C(F)(F)F)c4)cc3)ncc2C1 [Compound 86, 3-(2-(4-((3-(trifluoromethyl)benzyl)oxy)phenyl)-7,8-dihydropyrido[4,3-d]pyrimidin-6(5H)-yl)propanoic acid]
EC50 (human S1PR1 receptor): > 1000 nM
EC50 (human S1PR3 receptor): > 1000 nM
EC50 (human S1PR5 receptor): < 10 nM

O=C(O)CCN1CCc2nc(-c3ccc(OCc4ccccc4OC(F)F)cc3)ncc2C1 [Compound 90, 3-(2-(4-((2-(difluoromethoxy)benzyl)oxy)phenyl)-7,8-dihydropyrido[4,3-d]pyrimidin-6(5H)-yl)propanoic acid]
EC50 (human S1PR1 receptor): > 1000 nM
EC50 (human S1PR3 receptor): > 1000 nM
EC50 (human S1PR5 receptor): 10 to 100 nM

Cc1ccc(C(F)(F)F)c(COc2ccc(-c3ncc4c(n3)CCN(CCC(=O)O)C4)cc2)c1 [Compound 91, 3-(2-(4-((5-methyl-2-(trifluoromethyl)benzyl)oxy)phenyl)-7,8-dihydropyrido[4,3-d]pyrimidin-6(5H)-yl)propanoic acid]
EC50 (human S1PR1 receptor): > 1000 nM
EC50 (human S1PR3 receptor): > 1000 nM
EC50 (human S1PR5 receptor): 100 to 1000 nM

O=C(O)CCN1CCc2nc(-c3ccc(OCc4cccc(OC(F)F)c4)cc3)ncc2C1 [Compound 92, 3-(2-(4-((3-(difluoromethoxy)benzyl)oxy)phenyl)-7,8-dihydropyrido[4,3-d]pyrimidin-6(5H)-yl)propanoic acid]
EC50 (human S1PR1 receptor): > 1000 nM
EC50 (human S1PR3 receptor): > 1000 nM
EC50 (human S1PR5 receptor): 10 to 100 nM

Cc1cc(OC(F)(F)F)ccc1COc1ccc(-c2ncc3c(n2)CCN(CCC(=O)O)C3)cc1 [Compound 93, 3-(2-(4-((2-methyl-4-(trifluoromethoxy)benzyl)oxy)phenyl)-7,8-dihydropyrido[4,3-d]pyrimidin-6(5H)-yl)propanoic acid]
EC50 (human S1PR1 receptor): < 1000 nM
EC50 (human S1PR3 receptor): > 1000 nM
EC50 (human S1PR5 receptor): < 10 nM

Cc1c(COc2ccc(-c3ncc4c(n3)CCN(CCC(=O)O)C4)cc2)cccc1C(F)(F)F [Compound 94, 3-(2-(4-((2-methyl-3-(trifluoromethyl)benzyl)oxy)phenyl)-7,8-dihydropyrido[4,3-d]pyrimidin-6(5H)-yl)propanoic acid]
EC50 (human S1PR1 receptor): < 1000 nM
EC50 (human S1PR3 receptor): > 1000 nM
EC50 (human S1PR5 receptor): < 10 nM

Cc1cc(COc2ccc(-c3ncc4c(n3)CCN(CCC(=O)O)C4)cc2)cc(OC(F)(F)F)c1 [Compound 95, 3-(2-(4-((3-methyl-5-(trifluoromethoxy)benzyl)oxy)phenyl)-7,8-dihydropyrido[4,3-d]pyrimidin-6(5H)-yl)propanoic acid]
EC50 (human S1PR1 receptor): < 1000 nM
EC50 (human S1PR3 receptor): > 1000 nM
EC50 (human S1PR5 receptor): < 10 nM

O=C(O)CCCN1Cc2cnc(-c3ccc(OCc4ccccc4)cc3)nc2C1 [Compound 99, 4-(2-(4-(benzyloxy)phenyl)-5H-pyrrolo[3,4-d]pyrimidin-6(7H)-yl)butanoic acid]
EC50 (human S1PR1 receptor): > 1000 nM
EC50 (human S1PR3 receptor): > 1000 nM
EC50 (human S1PR5 receptor): 1000 to 10000 nM

O=C(O)CCN1Cc2cnc(-c3ccc(OCc4ccccc4)cc3)nc2C1 [Compound 100, 3-(2-(4-(benzyloxy)phenyl)-5H-pyrrolo[3,4-d]pyrimidin-6(7H)-yl)propanoic acid]
EC50 (human S1PR1 receptor): > 1000 nM
EC50 (human S1PR3 receptor): > 1000 nM
EC50 (human S1PR5 receptor): 1000 to 10000 nM

CC(CN1CCc2nc(-c3ccc(OCc4ccccc4)cc3F)ccc2C1)C(=O)O (stereo not drawn) [Compound 102, 3-(2-(4-(benzyloxy)-2-fluorophenyl)-7,8-dihydro-1,6-naphthyridin-6(5H)-yl)-2-methylpropanoic acid]
EC50 (human S1PR1 receptor): < 1000 nM
EC50 (human S1PR3 receptor): > 1000 nM
EC50 (human S1PR5 receptor): 10 to 100 nM

CC(CN1CCc2nc(-c3ccc(OCc4ccccc4)c(F)c3)ccc2C1)C(=O)O (stereo not drawn) [Compound 103, 3-(2-(4-(benzyloxy)-3-fluorophenyl)-7,8-dihydro-1,6-naphthyridin-6(5H)-yl)-2-methylpropanoic acid]
EC50 (human S1PR1 receptor): > 1000 nM
EC50 (human S1PR3 receptor): > 1000 nM
EC50 (human S1PR5 receptor): 10 to 100 nM

CC(CN1CCc2nc(-c3ccc(OCc4ccc(F)cc4)c(Cl)c3)ccc2C1)C(=O)O (stereo not drawn) [Compound 104, 3-(2-(4-((4-fluorobenzyl)oxy)-3-chlorophenyl)-7,8-dihydro-1,6-naphthyridin-6(5H)-yl)-2-methylpropanoic acid]
EC50 (human S1PR1 receptor): > 1000 nM
EC50 (human S1PR3 receptor): > 1000 nM
EC50 (human S1PR5 receptor): 10 to 100 nM

CC(CN1CCc2nc(-c3ccc(OCc4ccccc4F)c(Cl)c3)ccc2C1)C(=O)O (stereo not drawn) [Compound 105, 3-(2-(4-((2-fluorobenzyl)oxy)-3-chlorophenyl)-7,8-dihydro-1,6-naphthyridin-6(5H)-yl)-2-methylpropanoic acid]
EC50 (human S1PR1 receptor): > 1000 nM
EC50 (human S1PR3 receptor): > 1000 nM
EC50 (human S1PR5 receptor): 100 to 1000 nM

CC(CN1CCc2nc(-c3ccc(OCc4ccccc4)c(Cl)c3)ccc2C1)C(=O)O (stereo not drawn) [Compound 106, 3-(2-(4-(benzyloxy)-3-chlorophenyl)-7,8-dihydro-1,6-naphthyridin-6(5H)-yl)-2-methylpropanoic acid]
EC50 (human S1PR1 receptor): > 1000 nM
EC50 (human S1PR3 receptor): > 1000 nM
EC50 (human S1PR5 receptor): 10 to 100 nM

CC(CN1CCc2nc(-c3cccc(OCc4ccccc4)c3)ccc2C1)C(=O)O (stereo not drawn) [Compound 107]
EC50 (human S1PR1 receptor): > 1000 nM
EC50 (human S1PR3 receptor): > 1000 nM
EC50 (human S1PR5 receptor): 1000 to 10000 nM

CC(CN1CCc2nc(-c3ccc(OCc4ccccc4)cc3Cl)ccc2C1)C(=O)O (stereo not drawn) [Compound 108, 3-(2-(4-(benzyloxy)-2-chlorophenyl)-7,8-dihydro-1,6-naphthyridin-6(5H)-yl)-2-methylpropanoic acid]
EC50 (human S1PR1 receptor): > 1000 nM
EC50 (human S1PR3 receptor): > 1000 nM
EC50 (human S1PR5 receptor): 100 to 1000 nM

CC(CN1CCc2nc(-c3ccc(OCc4cccc(F)c4)cc3)ccc2C1)C(=O)O (stereo not drawn) [Compound 109, 3-(2-(4-((3-fluorobenzyl)oxy)phenyl)-7,8-dihydro-1,6-naphthyridin-6(5H)-yl)-2-methylpropanoic acid]
EC50 (human S1PR1 receptor): < 1000 nM
EC50 (human S1PR3 receptor): > 1000 nM
EC50 (human S1PR5 receptor): < 10 nM

Cc1cc(-c2ccc3c(n2)CCN(CC(=O)O)C3)ccc1OCc1ccccc1 [Compound 111, 2-(2-(4-(benzyloxy)-3-methylphenyl)-7,8-dihydro-1,6-naphthyridin-6(5H)-yl)acetic acid]
EC50 (human S1PR1 receptor): > 1000 nM
EC50 (human S1PR3 receptor): > 1000 nM
EC50 (human S1PR5 receptor): 100 to 1000 nM

Cc1cc(-c2ccc3c(n2)CCN(CC(=O)O)C3)ccc1OCc1ccc(C(F)(F)F)cc1 [Compound 112, 2-(2-(3-methyl-4-((4-(trifluoromethyl)benzyl)oxy)phenyl)-7,8-dihydro-1,6-naphthyridin-6(5H)-yl)acetic acid]
EC50 (human S1PR1 receptor): > 1000 nM
EC50 (human S1PR3 receptor): > 1000 nM
EC50 (human S1PR5 receptor): 100 to 1000 nM

O=C(O)CCCN1CCc2nc(-c3ccc(OCc4ccccc4)cc3)ccc2C1 [Compound 115, 4-(2-(4-(benzyloxy)phenyl)-7,8-dihydro-1,6-naphthyridin-6(5H)-yl)butanoic acid]
EC50 (human S1PR1 receptor): > 1000 nM
EC50 (human S1PR3 receptor): > 1000 nM
EC50 (human S1PR5 receptor): < 10 nM

O=C(O)CCCN1CCc2nc(-c3ccc(OCc4cccc(F)c4)cc3)ccc2C1 [Compound 116, 4-(2-(4-((3-fluorobenzyl)oxy)phenyl)-7,8-dihydro-1,6-naphthyridin-6(5H)-yl)butanoic acid]
EC50 (human S1PR1 receptor): > 1000 nM
EC50 (human S1PR3 receptor): > 1000 nM
EC50 (human S1PR5 receptor): < 10 nM
